In PubChem BioAssay AID330 (DTP/NCI, 2004):
“And” between values parts separate entries of the source, which are not always exact repeats. Identical values can stand only once. Inconclusive results and toxic doses are left out. The calls were made as follows: active = survival T/C of 150% or more; inactive = T/C below 125% in these data.

System: P388 leukemia ip, CD2F1 mice, survival T/C
Assay: NCI In Vivo Anticancer Drug Screen. Data for tumor model P388 Leukemia (intraperitoneal) in CD2F1 (CDF1) mice
Settings: endpoint: median survival time, higher = longer survival
Method in brief: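 Mice carrying the transplanted tumor received test compound or vehicle. Survival was recorded in each group, and the value is the treated-group measurement divided by that of the vehicle-treated control group.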

[1] = dose: 60.0 mg/kg/injection, schedule: Q01DX005 (ip), vehicle: saline with Tween-80
[2] = dose: 120.0 mg/kg/injection, schedule: Q01DX005 (ip), vehicle: saline with Tween-80
[3] = dose: 240.0 mg/kg/injection, schedule: Q01DX005 (ip), vehicle: saline with Tween-80
[4] = dose: 50.0 mg/kg/injection, schedule: Q01DX005 (ip), vehicle: Klucel (hydroxypropylcellulose) (HPC)
[5] = dose: 100.0 mg/kg/injection, schedule: Q01DX005 (ip), vehicle: Klucel (hydroxypropylcellulose) (HPC)
[6] = dose: 200.0 mg/kg/injection, schedule: Q01DX005 (ip), vehicle: Klucel (hydroxypropylcellulose) (HPC)
[7] = dose: 100.0 mg/kg/injection, schedule: Q04DX003 (ip), vehicle: saline
[8] = dose: 12.5 mg/kg/injection, schedule: Q01DX009 (ip), vehicle: saline
[9] = dose: 25.0 mg/kg/injection, schedule: Q01DX009 (ip), vehicle: saline

Measured: T/C

CCn1cc(C(=O)O)c(=O)c2cc(Cl)c(-n3cccc3)cc21
inactive: [1] 95 % of control | [2] 99 % of control | [3] 94 % of control

CC(=O)Oc1ccc2c(c1)C(=O)c1nc(C)c(C)nc1C2=O
inactive: [4] 102 % of control | [5] 102 % of control | [6] 109 % of control

CN(O)C(=O)CCCCCCCCC(=O)N(C)O
inactive: [1] 103 % of control | [2] 105 % of control | [3] 114 % of control

O=C1CC(=O)N(CN2C(=O)CC(=O)NC2=S)C(=S)N1
inactive: [4] 100 % of control | [5] 103 % of control | [6] 105 % of control

CN(C)C=C1C(=O)CCCC1=O
inactive: dose: 60.0 mg/kg/injection, schedule: Q01DX005 (ip), vehicle: saline 105 % of control | dose: 120.0 mg/kg/injection, schedule: Q01DX005 (ip), vehicle: saline 117 % of control

CC(C)=CCC(OC(=O)C=C(C)C)c1cc(O)c2c(O)ccc(O)c2c1O.[Cu] (stereo not given)
inactive: dose: 100.0 mg/kg/injection, schedule: Q04DX002 (ip), vehicle: saline with Tween-80 101 % of control | dose: 200.0 mg/kg/injection, schedule: Q04DX002 (ip), vehicle: saline with Tween-80 104 % of control

O=c1cccc(C(Cl)(Cl)Cl)o1
inactive: dose: 30.0 mg/kg/injection, schedule: Q01DX005 (ip), vehicle: saline + Tween-80 + alcohol 105 % of control | dose: 60.0 mg/kg/injection, schedule: Q01DX005 (ip), vehicle: saline + Tween-80 + alcohol 104 % of control and 105 % of control | dose: 120.0 mg/kg/injection, schedule: Q01DX005 (ip), vehicle: saline + Tween-80 + alcohol 105 % of control and 97 % of control

COc1ccc(-[n+]2noc(N)n2)cc1
inactive: dose: 3.13 mg/kg/injection, schedule: Q01DX009 (ip), vehicle: water 99 % of control | dose: 6.25 mg/kg/injection, schedule: Q01DX009 (ip), vehicle: water 102 % of control | dose: 12.5 mg/kg/injection, schedule: Q01DX009 (ip), vehicle: water 108 % of control | dose: 25.0 mg/kg/injection, schedule: Q01DX009 (ip), vehicle: water 116 % of control | dose: 50.0 mg/kg/injection, schedule: Q01DX009 (ip), vehicle: water 120 % of control

CC(=O)NC(=O)Cc1ccccc1
inactive: dose: 100.0 mg/kg/injection, schedule: Q04DX002 (ip), vehicle: Klucel (hydroxypropylcellulose) (HPC) 94 % of control | dose: 200.0 mg/kg/injection, schedule: Q04DX002 (ip), vehicle: Klucel (hydroxypropylcellulose) (HPC) 95 % of control | dose: 400.0 mg/kg/injection, schedule: Q04DX002 (ip), vehicle: Klucel (hydroxypropylcellulose) (HPC) 97 % of control

Brc1ccc(N=Cc2cccs2)cc1
inactive: [7] 100 % of control | dose: 200.0 mg/kg/injection, schedule: Q04DX003 (ip), vehicle: saline 99 % of control | dose: 400.0 mg/kg/injection, schedule: Q04DX003 (ip), vehicle: saline 98 % of control

CN([NH-])C(=S)[S-].CN([NH-])C(=S)[S-].[Pt+4]
inactive: dose: 25.0 mg/kg/injection, schedule: Q04DX003 (ip), vehicle: Klucel (hydroxypropylcellulose) (HPC) 107 % of control | dose: 50.0 mg/kg/injection, schedule: Q04DX003 (ip), vehicle: Klucel (hydroxypropylcellulose) (HPC) 100 % of control | dose: 100.0 mg/kg/injection, schedule: Q04DX003 (ip), vehicle: Klucel (hydroxypropylcellulose) (HPC) 90 % of control

Cc1cc(NCCN(C(C)C)C(C)C)nc(/N=C(\N)Nc2ccc(Cl)c(C(F)(F)F)c2)n1
inactive: dose: 10.0 mg/kg/injection, schedule: Q04DX003 (ip), vehicle: Klucel (hydroxypropylcellulose) (HPC) 107 % of control and 123 % of control | dose: 20.0 mg/kg/injection, schedule: Q04DX003 (ip), vehicle: Klucel (hydroxypropylcellulose) (HPC) 123 % of control

CC([OH2+])CNCCN.CC([OH2+])CNCCN.[Ni+2].[O-][Cl+3]([O-])([O-])[O-] (stereo not given)
inactive: [8] 111 % of control | [9] 100 % of control

Cc1nnc(Cc2ccccc2)c2n[nH]c(C)c12
inactive: dose: 50.0 mg/kg/injection, schedule: Q01DX009 (ip), vehicle: Klucel (hydroxypropylcellulose) (HPC) 98 % of control | dose: 100.0 mg/kg/injection, schedule: Q01DX009 (ip), vehicle: Klucel (hydroxypropylcellulose) (HPC) 103 % of control | dose: 200.0 mg/kg/injection, schedule: Q01DX009 (ip), vehicle: Klucel (hydroxypropylcellulose) (HPC) 95 % of control

CC1(CO)COC(c2ccc(Cl)cc2)N1 (stereo not given)
inactive: dose: 50.0 mg/kg/injection, schedule: Q01DX005 (ip), vehicle: acetone 106 % of control | dose: 100.0 mg/kg/injection, schedule: Q01DX005 (ip), vehicle: acetone 106 % of control | dose: 200.0 mg/kg/injection, schedule: Q01DX005 (ip), vehicle: acetone 112 % of control

COC1NC(=O)N(C(C)C)C1(C)C (stereo not given)
inactive: [8] 101 % of control | [9] 101 % of control | dose: 50.0 mg/kg/injection, schedule: Q01DX009 (ip), vehicle: saline 100 % of control and 97 % of control | dose: 200.0 mg/kg/injection, schedule: Q01DX009 (ip), vehicle: saline 107 % of control

COc1cccc(C(=O)O)c1C(=O)O
inactive: dose: 25.0 mg/kg/injection, schedule: Q01DX009 (ip), vehicle: other 97 % of control | dose: 50.0 mg/kg/injection, schedule: Q01DX009 (ip), vehicle: other 100 % of control | dose: 100.0 mg/kg/injection, schedule: Q01DX009 (ip), vehicle: other 99 % of control | dose: 200.0 mg/kg/injection, schedule: Q01DX009 (ip), vehicle: other 106 % of control | dose: 400.0 mg/kg/injection, schedule: Q01DX009 (ip), vehicle: other 103 % of control

Cc1cc(O)c(C(c2ccccn2)c2c(O)cc(C)[nH]c2=O)c(=O)[nH]1
inactive: dose: 50.0 mg/kg/injection, schedule: Q01DX009 (ip), vehicle: saline with Tween-80 102 % of control | dose: 100.0 mg/kg/injection, schedule: Q01DX009 (ip), vehicle: saline with Tween-80 102 % of control | dose: 200.0 mg/kg/injection, schedule: Q01DX009 (ip), vehicle: saline with Tween-80 105 % of control

[Cl][Pt+2][Cl].[NH-]Cc1ccccc1[NH-]
active: dose: 6.25 mg/kg/injection, schedule: Q04DX002 (ip), vehicle: saline with Tween-80 164 % of control | dose: 12.5 mg/kg/injection, schedule: Q04DX002 (ip), vehicle: saline with Tween-80 164 % of control | dose: 25.0 mg/kg/injection, schedule: Q04DX002 (ip), vehicle: saline with Tween-80 167 % of control

O=[N+]([O-])c1cc(C(F)(F)F)cc([N+](=O)[O-])c1Nc1ccccc1
inactive: dose: 30.0 mg/kg/injection, schedule: Q01DX005 (ip), vehicle: Klucel (hydroxypropylcellulose) (HPC) 102 % of control | dose: 60.0 mg/kg/injection, schedule: Q01DX005 (ip), vehicle: Klucel (hydroxypropylcellulose) (HPC) 107 % of control | dose: 120.0 mg/kg/injection, schedule: Q01DX005 (ip), vehicle: Klucel (hydroxypropylcellulose) (HPC) 104 % of control | dose: 240.0 mg/kg/injection, schedule: Q01DX005 (ip), vehicle: Klucel (hydroxypropylcellulose) (HPC) 103 % of control

CC(OC(C(O)C=O)C(O)C(O)CO)C(=O)N[C@@H](C)C(=O)O (stereo not given in full)
inactive: [1] 101 % of control | [2] 100 % of control | [3] 100 % of control

O=C1CN(CCCN2c3ccccc3Sc3ccc(C(F)(F)F)cc32)CC(=O)N1
inactive: dose: 50.0 mg/kg/injection, schedule: Q01DX005 (ip), vehicle: saline with Tween-80 103 % of control | dose: 100.0 mg/kg/injection, schedule: Q01DX005 (ip), vehicle: saline with Tween-80 100 % of control | dose: 200.0 mg/kg/injection, schedule: Q01DX005 (ip), vehicle: saline with Tween-80 104 % of control

COc1cc2c(cc1OC)C1CC(CC3CCCCN31)OC(=O)/C=C\c1ccc(O)c-2c1 (stereo not given)
inactive: dose: 25.0 mg/kg/injection, schedule: Q04DX003 (ip), vehicle: saline 105 % of control | dose: 50.0 mg/kg/injection, schedule: Q04DX003 (ip), vehicle: saline 111 % of control | [7] 102 % of control and 86 % of control

CN=NNCc1ccccc1
inactive: dose: 1.56 mg/kg/injection, schedule: Q01DX005 (ip), vehicle: saline 100 % of control and 102 % of control | dose: 3.12 mg/kg/injection, schedule: Q01DX005 (ip), vehicle: saline 98 % of control and 103 % of control | dose: 6.25 mg/kg/injection, schedule: Q01DX005 (ip), vehicle: saline 102 % of control and 105 % of control | dose: 12.5 mg/kg/injection, schedule: Q01DX005 (ip), vehicle: saline 93 % of control
